The values that follow are results of earlier work, collected in patent US12575570B2, “Aqueous composition of Epyrifenacil, Mesotrione and Pyroxasulfone” (Valent U.S.A. LLC, priority 2020, dated 2026).

`CS(=O)(=O)c1ccc(C(=O)C2C(=O)CCCC2=O)c([N+](=O)[O-])c1` [mesotrione, 2-(4-mesyl-2-nitrobenzoyl)cyclohexane-1,3-dione]: the water solubility is 160 ppm.
